Assay results published in patent publication US9044424B2, “Methods of regulating glucose metabolism, and reagents related thereto” (Trustees of Tufts College, priority 1998, dated 2015).
Like-named read-outs stand apart in the source and are kept apart here.

Tests used:
DP-IV = DP-IV (Homo sapiens, UniProt P27487); test: DP-IV inhibition / affinity
Method: As an illustrative embodiment, the ability of a test agent to inhibit DPIV can be assessed using a colorimetric or fluorometric substrate, such as Ala-Pro-paranitroanilide.
An illustrative reaction mixture includes 50 μM sodium Hepes (pH7.8), 10 μM Ala-Pro-paranitroanilide, 6 milliunits of DPIV, and 2% (v/v) dimethylformamide in a total volume of 1.0 mL. The reaction is initiated by addition of enzyme, and formation of reaction product (paranitroanilide) in the presence and absence of a test compound can be detected photometrically, e.g., at 410 nm.

mice = test: Oral glucose tolerance test in mice; assay type: in vivo; settings: for glucose levels in blood / glucose control: single injection alone, one hour prior to oral glucose challenge, FIG. 3; for response to a sub-therapeutic dose of GLP-1: single injection, with 8 μg GLP-1
Method: The first two experiments are “acute” experiments wherein the mice were injected with a single dose of Pro-boro-pro. In the first set of experiments mice were injected with 150 μg of Pro-boro-pro (PBP-1) and then subjected to an oral glucose tolerance test within an hour. […] In a second set of experiments mice were injected with Pro-boro-pro (PBP-2) one hour prior to an oral glucose challenge test. FIG. 3 presents the results of these experiments. Each set of experiments was also performed using saline as a control.
The third set of experiments were “chronic” experiments, wherein the mice were injected twice daily with Pro-boro-pro for four days, followed by an oral glucose challenge.

[1] = cited from earlier work
[2] = chronic (>5 days) treatment alone

Sequence of DP-IV (P27487 whole entry): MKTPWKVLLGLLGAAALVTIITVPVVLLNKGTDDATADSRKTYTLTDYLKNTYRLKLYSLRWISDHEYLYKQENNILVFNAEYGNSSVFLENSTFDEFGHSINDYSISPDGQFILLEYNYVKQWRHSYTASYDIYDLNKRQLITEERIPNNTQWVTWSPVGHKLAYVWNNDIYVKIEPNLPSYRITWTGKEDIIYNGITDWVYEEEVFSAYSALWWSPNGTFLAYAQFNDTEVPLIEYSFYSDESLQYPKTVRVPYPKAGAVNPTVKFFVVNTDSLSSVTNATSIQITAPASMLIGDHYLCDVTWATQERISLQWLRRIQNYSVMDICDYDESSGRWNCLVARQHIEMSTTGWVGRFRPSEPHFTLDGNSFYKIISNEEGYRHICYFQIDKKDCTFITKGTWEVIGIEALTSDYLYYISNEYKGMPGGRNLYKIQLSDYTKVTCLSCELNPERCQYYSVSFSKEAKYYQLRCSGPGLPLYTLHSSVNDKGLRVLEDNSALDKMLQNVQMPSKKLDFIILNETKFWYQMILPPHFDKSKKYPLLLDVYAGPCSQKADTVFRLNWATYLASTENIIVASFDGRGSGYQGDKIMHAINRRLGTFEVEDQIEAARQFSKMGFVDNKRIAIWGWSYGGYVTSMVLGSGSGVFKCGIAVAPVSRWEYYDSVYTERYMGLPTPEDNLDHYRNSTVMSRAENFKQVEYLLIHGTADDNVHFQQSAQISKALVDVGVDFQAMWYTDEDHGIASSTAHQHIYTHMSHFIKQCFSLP

## CC(NC(=O)OC(C)(C)C)C(=O)N1CCCC1B(O)O (stereo not drawn) [Boc-blocked Ala-boroPro, Boc-Ala-boroPro]
DP-IV
  affinity for DP-IV: no affinity

## O=C(C1CCCN1)N1CCCC1B(O)O (stereo not shown) [Pro-boro-pro]
mice; [2]
  fasting blood sugars: lowers
  glycemic excursion to oral glucose challenge: lowers
mice; chronic: injected twice daily for four days, then oral glucose challenge, FIG. 4
  blood sugar levels: lowering of the blood sugar levels
mice; oral glucose challenge in mice, overall statement
  blood sugar: clearly lowers blood sugar
mice; single injection 150 μg, oral glucose tolerance test within an hour, 8 μg GLP-1 five minutes prior to glucose, FIG. 2
  glucose levels in blood (glucose tolerance curve): improves glucose levels in blood
mice
  glucose levels in blood / glucose control: alone sufficient to improve glucose control
mice; listed as PBP-2
  glucose levels in blood / glucose control: improves glucose levels in blood
mice; FIG. 2
  response to a sub-therapeutic dose of GLP-1: potentiate the response to a subtherapeutic dose of GLP-1
mice; FIG. 2, listed as PBP-1
  response to a sub-therapeutic dose of GLP-1: potentiates the response to a sub-therapeutic dose of GLP-1

## L-Ala-L-boroPro-pinacol
DP-IV; silica gel fractions compared at equal concentrations
  extent of DP-IV inhibition: inhibits DP-IV to a greater extent than later fractions

## glucagon-like peptide-1 [GLP-1]
[1]; thirty minutes after subcutaneous GLP-1, diabetic patients (n=8)
  metabolite share of the increase in plasma immunoreactivity (COOH-terminal RIA): 88.5+1.9%
[1]; thirty minutes after subcutaneous GLP-1, healthy subjects (n=8)
  metabolite share of the increase in plasma immunoreactivity (COOH-terminal RIA): 78.4+3.2%
